In US12404270B2, “Quinazoline derivatives as LPA receptor 2 inhibitors” (CHIESI FARMACEUTICI S.P.A., priority 2019, dated 2025) one finds IC50 data, which are given here for 21 compounds.

For one test, the target named is T1, human recombinant LPA2 expressed in CHO cells (Homo sapiens, UniProt Q9HBW0).
T1 construct: expressed in transfected cells; host or cells: CHO (CHO-hLPA2 cell line)
T1 sequence (Q9HBW0 whole entry): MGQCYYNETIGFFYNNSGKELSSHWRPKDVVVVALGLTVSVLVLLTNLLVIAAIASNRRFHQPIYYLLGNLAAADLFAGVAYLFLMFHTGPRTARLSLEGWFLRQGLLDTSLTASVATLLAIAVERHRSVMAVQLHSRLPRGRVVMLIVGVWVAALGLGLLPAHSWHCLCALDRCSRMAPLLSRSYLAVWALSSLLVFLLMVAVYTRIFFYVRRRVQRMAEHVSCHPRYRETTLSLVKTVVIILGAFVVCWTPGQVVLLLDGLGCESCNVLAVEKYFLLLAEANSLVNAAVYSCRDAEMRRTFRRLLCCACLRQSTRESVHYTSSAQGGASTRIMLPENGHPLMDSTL
The test is described as follows: FLIPR calcium mobilization assay, LPA2 antagonism in CHO-hLPA2 cells. The test is classed as cell-based. The settings on record: CHO-hLPA2 cells, inhibition of LPA EC80 Ca2+ response, 30 min pre-incubation; read-out: LPA2 IC50. As to the method:
The effectiveness of compounds of the present invention as LPA2 antagonist can be determined at the human recombinant LPA2 expressed in CHO cells, using a FLIPR assay in 384 well format.
CHO-hLPA2 cell lines are cultured in a humidified incubator at 5% CO2 in DMEM/F-12 (1:1) MIXTURE with 2 mM Glutamax, supplemented with 10% of Foetal Bovine Serum, 1 mM Sodium Pyruvate, 11 mM Hepes and 1× Penicillin/Streptomycin. CHO hLPA2 cells are seeded into black walled clear-bottom 384-well plates (#781091, Greiner Bio-One GmbH) at a density of 7,500 cells per well in 50 μl culture media and grown overnight in a 37° C. humidified CO2-incubator. Serial dilutions (1:3 or 1:4, 11 points CRC) of compounds are performed in 100% DMSO at 200× the final concentration. The compounds are diluted 1:50 prior to the experiment with Assay Buffer (20 mM HEPES, 145 mM NaCl, 5 mM KCl, 5.5 mM glucose, 1 mM MgCl2 and 2 mM CaCl2, pH 7.4 containing 0.01% Pluronic F-127) to obtain a solution corresponding to […] the final concentration in the assay (4×, 2% DMSO). The final concentration of DMSO in the assay will be 0.5% in each well. Medium is removed by aspiration and cells are then incubated with 30 μl of a loading solution containing 5 μM of the cytoplasmic Ca2+ indicator Cal-520 AM in Assay Buffer containing 2.5 mM probenecid for 30 min at 37° C. incubator (cell loading). The loaded cell plates are transferred into the FLIPR instrument and calcium responses are monitored during the on-line addition protocols. For testing of compounds, after the cell loading, 10 μl/well of 4× antagonists' solution was added onto the cells. […] Intracellular peak fluorescence values subtracted by baseline fluorescence are exported and analysed to determine IC50 values, respectively. The calcium response is expressed as percentage of the maximal inhibition of the EC80 agonist response.
The raw data (peak height expressed as relative fluorescence units) are normalized and transformed into “percent of inhibition”. Curve fitting and pIC50 (−Log IC50) estimations are carried out using a four-parameter logistic model using XLfit Software.
One may read the IC50 as the midpoint of a concentration-inhibition curve. With `COC(=O)N(C)c1nc(C)c(S(=O)(=O)N2CCN(C[C@H](C)Nc3ncnc4c(C(F)(F)F)cccc34)CC2)s1` [Example 89, methyl N-methyl-N-[4-methyl-5-({4-[(2S)-2-{[8-(trifluoromethyl)quinazolin-4-yl]amino}propyl]piperazin-1-yl}sulfonyl)-1,3-thiazol-2-yl]carbamate], the half-maximal inhibitory concentration (IC50) was in the range of 10 to 100 nM.

Take `Cc1noc(-c2ccc(S(=O)(=O)N3CCN(C[C@H](C)Nc4ncnc5c(C(F)(F)F)cccc45)CC3)o2)c1C` [Example 68, N-[(2S)-1-(4-{[5-(3,4-dimethyl-1,2-oxazol-5-yl)furan-2-yl]sulfonyl}piperazin-1-yl)propan-2-yl]-8-(trifluoromethyl)quinazolin-4-amine]: the IC50 was 10 to 100 nM.

On to `COC(=O)Nc1nc(C)c(S(=O)(=O)N2CCN(C[C@H](C)Nc3ncnc4c(C(=O)N5CCC[C@H]5C(F)(F)F)cccc34)CC2)s1` (racemic) [Example 84, methyl N-[4-methyl-5-({4-[(2S)-2-({8-[(2S)-2-(trifluoromethyl)pyrrolidine-1-carbonyl]quinazolin-4-yl}amino)propyl]piperazin-1-yl}sulfonyl)-1,3-thiazol-2-yl]carbamate], for which the IC50 was below 1000 nM.

As to `Cc1noc(-c2ccc(S(=O)(=O)N3CCN(C[C@H](C)Nc4ncnc5c(C(=O)N(C)C)cccc45)CC3)s2)c1C` [Example 43, 4-{[(2S)-1-(4-{[5-(3,4-dimethyl-1,2-oxazol-5-yl)thiophen-2-yl]sulfonyl}piperazin-1-yl)propan-2-yl]amino}-N,N-dimethylquinazoline-8-carboxamide], the IC50 was below 10 nM.

As for `C[C@@H](CN1CCN(S(=O)(=O)c2ccc(-c3ccon3)s2)CC1)Nc1ncnc2c(C(F)(F)F)cccc12` [Example 53, N-[(2S)-1-(4-{[5-(1,2-oxazol-3-yl)thiophen-2-yl]sulfonyl}piperazin-1-yl)propan-2-yl]-8-(trifluoromethyl)quinazolin-4-amine], the 50% inhibitory concentration (IC50) was 10 to 100 nM.

`COC(=O)Nc1nc(C)c(S(=O)(=O)N2CCN(C[C@H](C)Nc3ncnc4c(OC(F)(F)F)cccc34)CC2)s1` [Example 3, Methyl N-[4-methyl-5-({4-[(2S)-2-{[8-(trifluoromethoxy)quinazolin-4-yl]amino}propyl]piperazin-1-yl}sulfonyl)-1,3-thiazol-2-yl]carbamate]: the IC50 was in the range of 10 to 100 nM.

On to `COC(=O)Nc1nc(C)c(S(=O)(=O)N2CCN(C[C@H](C)Nc3ncnc4c(C(=O)OC)cccc34)CC2)s1` [Example 17, methyl 4-{[(2S)-1-[4-({2-[(methoxycarbonyl)amino]-4-methyl-1,3-thiazol-5-yl}sulfonyl)piperazin-1-yl]propan-2-yl]amino}quinazoline-8-carboxylate], for which the IC50 was 10 to 100 nM.

With `Cc1noc(-c2ccc(S(=O)(=O)N3CCN(C[C@H](C)Nc4ncnc5c(OC(F)F)cccc45)CC3)s2)c1C` [Example 4, 8-(difluoromethoxy)-N-[(2S)-1-(4-{[5-(3,4-dimethyl-1,2-oxazol-5-yl)thiophen-2-yl]sulfonyl}piperazin-1-yl)propan-2-yl]quinazolin-4-amine], the IC50 was in the range of 10 to 100 nM.

Take `COC(=O)Nc1nc(C)c(S(=O)(=O)N2CCN(C[C@H](C)Nc3nc(C)nc4c(C(F)(F)F)cccc34)CC2)s1` [Example 2, methyl N-[4-methyl-5-({4-[(2S)-2-{[2-methyl-8-(trifluoromethyl)quinazolin-4-yl]amino}propyl]piperazin-1-yl}sulfonyl)-1,3-thiazol-2-yl]carbamate]: the IC50 was in the range of 10 to 100 nM.

For the compound `CC(=O)Nc1ncc(S(=O)(=O)N2CCN(C[C@H](C)Nc3nc(C)nc4c(C(F)(F)F)cccc34)CC2)s1` [Example 13, N-[5-({4-[(2S)-2-{[2-methyl-8-(trifluoromethyl)quinazolin-4-yl]amino}propyl]piperazin-1-yl}sulfonyl)-1,3-thiazol-2-yl]acetamide], the IC50 lay in the range of 10 to 100 nM.

On to `COC(=O)Nc1nc(C)c(S(=O)(=O)N2CCN(C[C@H](C)Nc3ncnc4c(Br)cccc34)CC2)s1` [Example 101, methyl N-[5-({4-[(2S)-2-[(8-bromoquinazolin-4-yl)amino]propyl]piperazin-1-yl}sulfonyl)-4-methyl-1,3-thiazol-2-yl]carbamate], for which the IC50 was 10 to 100 nM.

Turning to `Cc1n[nH]c(-c2ccc(S(=O)(=O)N3CCN(C[C@H](C)Nc4ncnc5c(C(F)(F)F)cccc45)CC3)o2)c1C` [Example 56, N-[(2S)-1-(4-{[5-(3,4-dimethyl-1H-pyrazol-5-yl)furan-2-yl]sulfonyl}piperazin-1-yl)propan-2-yl]-8-(trifluoromethyl)quinazolin-4-amine], the IC50 was in the range of 10 to 100 nM.

Turning to `Cc1cc(-c2ccc(S(=O)(=O)N3CCN(C[C@H](C)Nc4ncnc5c(C(F)(F)F)cccc45)CC3)o2)on1` [Example 52, N-[(2S)-1-(4-{[5-(3-methyl-1,2-oxazol-5-yl)furan-2-yl]sulfonyl}piperazin-1-yl)propan-2-yl]-8-(trifluoromethyl)quinazolin-4-amine], the 50% inhibitory concentration (IC50) is 10 to 100 nM.

As to `C[C@@H](CN1CCN(S(=O)(=O)c2ccc(-c3ccno3)o2)CC1)Nc1ncnc2c(C(F)(F)F)cccc12` [Example 54, N-[(2S)-1-(4-{[5-(1,2-oxazol-5-yl)furan-2-yl]sulfonyl}piperazin-1-yl)propan-2-yl]-8-(trifluoromethyl)quinazolin-4-amine], the IC50 is below 1000 nM.

Consider `COC(=O)c1cccc2c(N[C@@H](C)CN3CCN(S(=O)(=O)c4cnc(NC(C)=O)s4)CC3)ncnc12` [Example 20, methyl 4-{[(2S)-1-{4-[(2-acetamido-1,3-thiazol-5-yl)sulfonyl]piperazin-1-yl}propan-2-yl]amino}quinazoline-8-carboxylate], for which the IC50 was 10 to 100 nM.

For the compound `Cc1cc(-c2ccc(S(=O)(=O)N3CCN(C[C@H](C)Nc4ncnc5c(OC(=O)N(C)C)cccc45)CC3)s2)on1` [Example 91, 4-{[(2S)-1-(4-{[5-(3-methyl-1,2-oxazol-5-yl)thiophen-2-yl]sulfonyl}piperazin-1-yl)propan-2-yl]amino}quinazolin-8-yl N,N-dimethylcarbamate], the 50% inhibitory concentration (IC50) was in the range of 10 to 100 nM.

As to `CC(=O)Nc1ncc(S(=O)(=O)N2CCN(C[C@H](C)Nc3nc(C4CC4)nc4c(C)cccc34)CC2)s1` [Example 19, N-[5-({4-[(2S)-2-[(2-cyclopropyl-8-methylquinazolin-4-yl)amino]propyl]piperazin-1-yl}sulfonyl)-1,3-thiazol-2-yl]acetamide], the IC50 was below 1000 nM.

In the case of `COCC(=O)Nc1nc(C)c(S(=O)(=O)N2CCN(C[C@H](C)Nc3ncnc4c(C(F)(F)F)cccc34)CC2)s1` [Example 25, 2-methoxy-N-[4-methyl-5-({4-[(2S)-2-{[8-(trifluoromethyl)quinazolin-4-yl]amino}propyl]piperazin-1-yl}sulfonyl)-1,3-thiazol-2-yl]acetamide], the IC50 is below 1000 nM.

For the compound `COCC(=O)Nc1ncc(S(=O)(=O)N2CCN(C[C@H](C)Nc3ncnc4c(C(F)(F)F)cccc34)CC2)s1` [Example 24, 2-methoxy-N-[5-({4-[(2S)-2-{[8-(trifluoromethyl)quinazolin-4-yl]amino}propyl]piperazin-1-yl}sulfonyl)-1,3-thiazol-2-yl]acetamide], the IC50 is below 1000 nM.

Consider `Cc1noc(-c2ccc(S(=O)(=O)N3CCN(C[C@H](C)Nc4ncnc5c(C(=O)N6CCC[C@@H]6C)cccc45)CC3)s2)c1C` (racemic) [Example 86, N-[(2S)-1-(4-{[5-(3,4-dimethyl-1,2-oxazol-5-yl)thiophen-2-yl]sulfonyl}piperazin-1-yl)propan-2-yl]-8-[(2S)-2-methylpyrrolidine-1-carbonyl]quinazolin-4-amine], for which the IC50 is below 10 nM.

Staying with this test, now noted: same in vitro assay as Table 2; read-out: IC50 on LPA2 receptor.
Regarding `COC(=O)Nc1nc(C)c(S(=O)(=O)N2CCN(C[C@H](C)Nc3ncnc4ncccc34)CC2)s1` [comparative Example A, Methyl (S)-(4-methyl-5-((4-(2-(pyrido[2,3-d]pyrimidin-4 ylamino)propyl)piperazin-1-yl)sulfonyl)thiazol-2-yl)carbamate, reference compound], the IC50 is above 3000 nM.
